Residue numbers refer to the chain shown, from its start.
Key:
[1] = target: T1, AR-mEGFP nuclear puncta in LNCaP cells (Homo sapiens, UniProt P10275); assay: AR phase separation inhibition IC50 testing (nuclear puncta imaging); format: cell-based; conditions: for IC50: LNCaP, compound 3 h before 20 nM DHT, 3 h DHT
T1 construct: expressed in transfected cells; host or cells: LNCaP
T1 sequence (P10275 1-920): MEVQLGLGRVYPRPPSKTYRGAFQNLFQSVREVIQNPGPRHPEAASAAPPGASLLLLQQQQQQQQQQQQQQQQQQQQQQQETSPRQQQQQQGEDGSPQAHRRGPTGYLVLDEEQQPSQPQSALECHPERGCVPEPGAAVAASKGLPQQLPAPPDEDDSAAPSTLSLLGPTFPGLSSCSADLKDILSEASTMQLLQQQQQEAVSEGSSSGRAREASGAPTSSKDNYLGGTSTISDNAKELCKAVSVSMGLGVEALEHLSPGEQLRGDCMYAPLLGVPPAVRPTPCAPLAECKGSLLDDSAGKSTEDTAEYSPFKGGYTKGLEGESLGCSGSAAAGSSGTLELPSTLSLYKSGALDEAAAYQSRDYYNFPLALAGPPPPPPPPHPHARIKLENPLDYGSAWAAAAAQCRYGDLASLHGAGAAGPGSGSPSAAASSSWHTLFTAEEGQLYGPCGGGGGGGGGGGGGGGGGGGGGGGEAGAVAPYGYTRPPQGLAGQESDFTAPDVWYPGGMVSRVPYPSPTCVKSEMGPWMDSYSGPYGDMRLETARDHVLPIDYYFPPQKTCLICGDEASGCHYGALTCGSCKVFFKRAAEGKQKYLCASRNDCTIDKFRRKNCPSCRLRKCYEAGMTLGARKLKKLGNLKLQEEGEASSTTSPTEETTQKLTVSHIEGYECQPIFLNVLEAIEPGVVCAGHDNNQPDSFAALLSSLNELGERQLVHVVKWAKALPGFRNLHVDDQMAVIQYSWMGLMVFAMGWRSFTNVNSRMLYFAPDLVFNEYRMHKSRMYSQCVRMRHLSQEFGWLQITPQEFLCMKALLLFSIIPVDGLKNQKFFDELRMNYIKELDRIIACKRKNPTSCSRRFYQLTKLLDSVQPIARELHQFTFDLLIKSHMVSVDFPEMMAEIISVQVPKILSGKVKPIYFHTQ
Procedure: Nuclear Puncta Imaging for Compounds IC50 Determination • LNCaP cells were cultured in a 10-cm dish. Cells were transfected with AR (AR or AR F877L/T878A)-mEGFP expression plasmids (pMSCV vector, 12 μg plasmid per 10-cm dish). 12 hours after transfection, medium were replaced with steroid hormone-free and phenol red-free RPMI1640 (starvation medium) and continued to starve for another 24 hours. Cells (80 μl, 20,000 per well) were seeded in a 96-well glass bottom plate (Cellvis, P96-1.5H-N) and cultured for another 24 hours. Then cells were incubated with 10× serial-diluted compounds […] for 3 hours before 20 nM DHT stimulation […]. After 3 hours DHT addition, cells were fixed with equal volume pre-warmed 8% PFA for 30 minutes and subsequently replaced with 100 μl PBS. Nuclear puncta images were acquired with Operetta CLS (Perkin Elmer) equipped with 60× water immersion lens (40 fields per well). The images were analyzed with Operetta built-in analysis modules. Nuclei were found from illumination corrected images with find nuclei module (type M) and filtered out low intensity nuclei. Subsequently puncta were first identified using find spot module (type A) and classified to high confident puncta and low confident puncta with PhenoLOGIC machine learning plug-in. For better representation, only high confident puncta were kept. The analyzed image puncta data were exported and statistics were processed with R/Bioconductor. The specific IC50 values were calculated by R/drc package (four-parameter log-logistic function).

AR = target: T2, AR (Homo sapiens, UniProt P10275); assay: ARE-luciferase reporter assay in LNCaP cells (DHT-induced); format: cell-based; conditions: 1 nM DHT, 24 h, normalized to cell viability, read-out: LNCaP ARE-luc IC50
T2 sequence (P10275 1-920 T878A): T1 sequence (P10275 1-920) with T878A
Procedure: The ARE-luciferase reporter plasmid contains functional AREs (androgen response elements) to which AR binds in response to androgen to induce luciferase activity. LNCaP (Cobioer) cells were transiently transfected with the ARE-luciferase reporter in charcoal stripped FBS/phenol red-free RPMI medium prior to treatment for 24 hours. Then DMSO or test compounds with serial diluted concentrations were added one hour prior to the addition of DHT(1 nM). After 24 h of incubation with DHT, cells were lysed and luciferase activity was assayed using the ONE-Glo™ Luciferase Assay System (Promega) and measured using EnVision Multimode Plate Reader, according to manufacturer's instructions. Values were normalized to cell viability determined by CellTiter-Glo® Luminescent Cell Viability Assay Kit (Promega). […] GraphPad Prism graphing software was used to calculate IC50 values.

| Structure (SMILES) | AR phase separation (FIG. 7) [1] | IC50 [1] [µM] | IC50 (AR) [µM] |
| --- | --- | --- | --- |
| CC(C)(c1ccc(OCc2ccnc(N=S3(=O)CCNCC3)n2)cc1)c1cc(Cl)c(OCCCl)c(C#N)c1 [Compound 6, 3-chloro-2-(2-chloroethoxy)-5-(2-(4-((2-((1-oxido-1λ^6-thiomorpholin-1-ylidene)amino)pyrimidin-4-yl)methoxy)phenyl)propan-2-yl)benzonitrile] | inhibited AR phase separation | 3.6 | 3.5 |
| CC(C)(c1ccc(C#Cc2cnc(NS(C)(=O)=O)nc2)cc1)c1cc(Cl)c(OCCCl)c(C#N)c1 [Compound 60, N-(5-((4-(2-(3-chloro-4-(2-chloroethoxy)-5-cyanophenyl)propan-2-yl)phenyl)ethynyl)pyrimidin-2-yl)methanesulfonamide] | inhibited AR phase separation | 2.5 | 4.7 |
| CC(C)(c1ccc(OCc2ccnc(NS(C)(=O)=O)n2)cc1)c1cc(Cl)c(OCCCl)c(C#N)c1 [Compound AA, N-(4-((4-(2-(3-chloro-4-(2-chloroethoxy)-5-cyanophenyl)propan-2-yl)phenoxy)methyl)pyrimidin-2-yl) methane sulfonamide, reference compound] | did not show inhibition | > 20 | 12.6 |
